Source: ChEMBL document CHEMBL1153147, “Solid-phase synthesis and antibiotic activities of cyclodecapeptides on the scaffold of naturally occurring Laterocidin” (2010)
Values after ≈ are worked out from the molar mass of the structure shown.

How the values were obtained:
Type in all cases: functional
[1] = system: Staphylococcus aureus; test: Antibacterial activity against Staphylococcus aureus ATCC 29213 after 20 hrs by broth dilution method; conditions: ATCC 29213, 20 h
[2] = system: Escherichia coli; test: Antibacterial activity against extended spectrum beta lactamase-producing Escherichia coli clinical isolate after 20 hrs by broth dilution method
[3] = system: Escherichia coli; test: Antibacterial activity against drug-resistant Escherichia coli clinical isolate after 20 hrs by broth dilution method
[4] = system: Bacillus subtilis; test: Antibacterial activity against Bacillus subtilis ATCC 82 after 20 hrs by broth dilution method; conditions: ATCC 82, 20 h
[5] = system: Escherichia coli; test: Antibacterial activity against Escherichia coli ATCC 25922 after 20 hrs by broth dilution method; conditions: ATCC 25922, 20 h
[6] = system: Pseudomonas aeruginosa; test: Antibacterial activity against Pseudomonas aeruginosa ATCC 27853 after 20 hrs by broth dilution method; conditions: ATCC 27853, 20 h
[7] = system: Staphylococcus aureus; test: Antibacterial activity against methicillin-resistant Staphylococcus aureus clinical isolate after 20 hrs by broth dilution method

| Compound | MIC [1] [µg/mL] | MIC [2] [µg/mL] | MIC [3] [µg/mL] | MIC [4] [µg/mL] | MIC [5] [µg/mL] | MIC [6] [µg/mL] | MIC [7] [µg/mL] |
| --- | --- | --- | --- | --- | --- | --- | --- |
| CC(C)C[C@@H]1NC(=O)[C@H](CC(N)=O)NC(=O)[C@H](CC(N)=O)NC(=O)[C@@H](Cc2ccccc2)NC(=O)[C@H](Cc2ccccc2)NC(=O)[C@@H]2CCCN2C(=O)[C@@H](Cc2ccc(O)cc2)NC(=O)[C@H](CC(C)C)NC(=O)[C@H](CCCN)NC(=O)[C@H](C(C)C)NC1=O | 2 (≈ 1.64 µM) | 256 (≈ 209 µM) | 64 (≈ 52.4 µM) | 1 (≈ 0.818 µM) | 64 (≈ 52.4 µM) | > 256 | 4 (≈ 3.27 µM) |
| CC(C)C[C@@H]1NC(=O)[C@H](CC(N)=O)NC(=O)[C@H](CC(N)=O)NC(=O)[C@@H](Cc2ccccc2)NC(=O)[C@H](Cc2ccc(O)cc2)NC(=O)[C@@H]2CCCN2C(=O)[C@@H](Cc2ccccc2)NC(=O)[C@H](CC(C)C)NC(=O)[C@H](CCCN)NC(=O)[C@H](C(C)C)NC1=O | 1 (≈ 0.818 µM) | 64 (≈ 52.4 µM) | 16 (≈ 13.1 µM) | 0.5 (≈ 0.409 µM) | > 256 | > 256 | 1 (≈ 0.818 µM) |
| CC(C)C[C@@H]1NC(=O)[C@H](CCCN)NC(=O)[C@H](C(C)C)NC(=O)[C@H](CC(C)C)NC(=O)[C@H](CC(N)=O)NC(=O)[C@H](CC(N)=O)NC(=O)[C@@H](Cc2ccccc2)NC(=O)[C@H](Cc2ccc(O)cc2)NC(=O)[C@@H]2CCCN2C(=O)[C@H](Cc2ccccc2)NC1=O | 128 (≈ 105 µM) | > 256 | – | 32 (≈ 26.2 µM) | > 256 | > 256 | 256 (≈ 209 µM) |
| CC(C)C[C@@H]1NC(=O)[C@H](CCCN)NC(=O)[C@H](C(C)C)NC(=O)[C@H](CC(C)C)NC(=O)[C@H](CC(N)=O)NC(=O)[C@H](CC(N)=O)NC(=O)[C@H](Cc2ccccc2)NC(=O)[C@H](Cc2ccc(O)cc2)NC(=O)[C@@H]2CCCN2C(=O)[C@H](Cc2ccccc2)NC1=O | 64 (≈ 52.4 µM) | > 256 | – | 64 (≈ 52.4 µM) | > 256 | > 256 | 128 (≈ 105 µM) |
| CC(C)C[C@@H]1NC(=O)[C@H](CC(N)=O)NC(=O)[C@H](CC(N)=O)NC(=O)[C@H](Cc2ccccc2)NC(=O)[C@H](Cc2ccc(O)cc2)NC(=O)[C@@H]2CCCN2C(=O)[C@@H](Cc2ccccc2)NC(=O)[C@H](CC(C)C)NC(=O)[C@H](CCCN)NC(=O)[C@H](C(C)C)NC1=O | 32 (≈ 26.2 µM) | > 256 | – | 32 (≈ 26.2 µM) | > 256 | > 256 | 16 (≈ 13.1 µM) |
| CC(C)C[C@@H]1NC(=O)[C@H](CC(N)=O)NC(=O)[C@H](CC(N)=O)NC(=O)[C@@H](Cc2ccccc2)NC(=O)[C@H](Cc2ccccc2)NC(=O)[C@@H]2CCCN2C(=O)[C@@H](Cc2ccccc2)NC(=O)[C@H](CC(C)C)NC(=O)[C@H](CCCN)NC(=O)[C@H](C(C)C)NC1=O | 2 (≈ 1.66 µM) | 128 (≈ 106 µM) | 128 (≈ 106 µM) | 2 (≈ 1.66 µM) | > 256 | > 256 | 4 (≈ 3.32 µM) |
| CC(C)C[C@@H]1NC(=O)[C@H](CC(=O)O)NC(=O)[C@H](CC(N)=O)NC(=O)[C@@H](Cc2ccccc2)NC(=O)[C@H](Cc2ccccc2)NC(=O)[C@@H]2CCCN2C(=O)[C@@H](Cc2ccc(O)cc2)NC(=O)[C@H](CC(C)C)NC(=O)[C@H](CCCN)NC(=O)[C@H](C(C)C)NC1=O [LATEROCIDIN] | 32 (≈ 26.2 µM) | > 256 | – | 16 (≈ 13.1 µM) | > 256 | > 256 | 128 (≈ 105 µM) |
